# PubChem BioAssay AID1845212 (Molecular Pharmacology Branch, DTP, NCI, 2023)
# Several values for one entry are separate records, joined by “and”; a condition that tells them apart may be missing. Equal values may be shown once.
# Tested on: NCI-H719 tumor spheroids, viability
# Assay: Anticancer human tumor NCI-H719 cell line growth inhibition;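 note: spheroids exposed to compounds for seven days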;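 for viability, T/C: percent viability relative to DMSO vehicle control as 100%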
# Settings: spheroids with HUVEC and MSC; for viability, T/C: stronger effect = lower value
# Procedure, shortened: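 Complex tumor spheroids combined malignant cells with endothelial cells and mesenchymal stem cells. DNA-damaging drugs and DNA repair inhibitors were tested alone and in combination, at half-log dilutions down from clinical Cmax (top 10 microM if Cmax unknown), 0.25% DMSO final.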
smiles,measurement,setting,value
Cn1ncnc1[C@H]1c2n[nH]c(=O)c3cc(F)cc(c23)N[C@@H]1c1ccc(F)cc1 + COc1cc2c(cc1O)CCNC21CSC2c3c(OC(C)=O)c(C)c4c(c3C(COC1=O)N1C(O)C3Cc5cc(C)c(OC)c(O)c5C(C21)N3C)OCO4,IC50,"curve of first compound, second compound 30 pM",< 9.49 nM
same,IC50,"curve of first compound, second compound 94.9 pM",< 9.49 nM
same,IC50,"curve of first compound, second compound 0.0003 µM",< 9.49 nM
same,IC50,"curve of first compound, second compound 0.000949 µM",< 9.49 nM
same,IC50,"curve of first compound, second compound 0.003 µM",< 9.49 nM
same,"viability, T/C","second compound 30 pM, first compound 0.00949 µM",13.1%
same,"viability, T/C","second compound 30 pM, first compound 0.03 µM",10.3%
same,"viability, T/C","second compound 30 pM, first compound 0.0949 µM",8.87%
same,"viability, T/C","second compound 30 pM, first compound 0.3 µM",10.9%
same,"viability, T/C","second compound 30 pM, first compound 0.949 µM",8.74%
same,"viability, T/C","second compound 30 pM, first compound 3 µM",6.49%
same,"viability, T/C","second compound 94.9 pM, first compound 0.00949 µM",8.85%
same,"viability, T/C","second compound 94.9 pM, first compound 0.03 µM",7.16%
same,"viability, T/C","second compound 94.9 pM, first compound 0.0949 µM",8.84%
same,"viability, T/C","second compound 94.9 pM, first compound 0.3 µM",7.47%
same,"viability, T/C","second compound 94.9 pM, first compound 0.949 µM",7.26%
same,"viability, T/C","second compound 94.9 pM, first compound 3 µM",7.49%
same,"viability, T/C","second compound 0.0003 µM, first compound 0.00949 µM",9.25%
same,"viability, T/C","second compound 0.0003 µM, first compound 0.03 µM",8.07%
same,"viability, T/C","second compound 0.0003 µM, first compound 0.0949 µM",9.38%
same,"viability, T/C","second compound 0.0003 µM, first compound 0.3 µM",10.2%
same,"viability, T/C","second compound 0.0003 µM, first compound 0.949 µM",7.28%
same,"viability, T/C","second compound 0.0003 µM, first compound 3 µM",7.06%
same,"viability, T/C","second compound 0.000949 µM, first compound 0.00949 µM",7.36%
same,"viability, T/C","second compound 0.000949 µM, first compound 0.03 µM",7.49%
same,"viability, T/C","second compound 0.000949 µM, first compound 0.0949 µM",7.37%
same,"viability, T/C","second compound 0.000949 µM, first compound 0.3 µM",6.85%
same,"viability, T/C","second compound 0.000949 µM, first compound 0.949 µM",5.96%
same,"viability, T/C","second compound 0.000949 µM, first compound 3 µM",4.33%
same,"viability, T/C","second compound 0.003 µM, first compound 0.00949 µM",0.57%
same,"viability, T/C","second compound 0.003 µM, first compound 0.03 µM",0.36%
same,"viability, T/C","second compound 0.003 µM, first compound 0.0949 µM",0.96%
same,"viability, T/C","second compound 0.003 µM, first compound 0.3 µM",0.6%
same,"viability, T/C","second compound 0.003 µM, first compound 0.949 µM",0.86%
same,"viability, T/C","second compound 0.003 µM, first compound 3 µM",0.88%
CC1COCCN1c1cc(-c2ccnn2C)c2ccnc(-c3ccn[nH]3)c2n1 (configuration not stated),"viability, T/C",compound 0.0316 µM,59.9% and 73.9% and 62.1%
same,"viability, T/C",compound 0.1 µM,60.1% and 43.6% and 50.1%
same,"viability, T/C",compound 0.316 µM,23.8% and 26.8% and 29.1%
same,"viability, T/C",compound 1 µM,11.2% and 14.3% and 10.5%
same,"viability, T/C",compound 3.16 µM,11.6% and 8.2% and 8.17%
same,"viability, T/C",compound 10 µM,13.3% and 9.71% and 10.8%
same,IC50,curve of compound,137 nM and 80.4 nM and 106 nM
Cc1sc2c(c1C)C(c1ccc(Cl)cc1)=NC(CC(=O)Nc1ccc(O)cc1)c1nnc(C)n1-2 (configuration not stated) + Cn1nnc2c(C(N)=O)ncn2c1=O,IC50,"curve of first compound, second compound 1 µM",79.9 nM
same,IC50,"curve of first compound, second compound 3.16 µM",137 nM
same,IC50,"curve of first compound, second compound 10 µM",201 nM
same,IC50,"curve of first compound, second compound 31.6 µM",71 nM
same,IC50,"curve of first compound, second compound 100 µM",54.1 nM
same,"viability, T/C","second compound 1 µM, first compound 0.00949 µM",90.8%
same,"viability, T/C","second compound 1 µM, first compound 0.03 µM",80.5%
same,"viability, T/C","second compound 1 µM, first compound 0.0949 µM",41.9%
same,"viability, T/C","second compound 1 µM, first compound 0.3 µM",20.6%
same,"viability, T/C","second compound 1 µM, first compound 0.949 µM",4.49%
same,"viability, T/C","second compound 1 µM, first compound 3 µM",3.76%
same,"viability, T/C","second compound 3.16 µM, first compound 0.00949 µM",95.2%
same,"viability, T/C","second compound 3.16 µM, first compound 0.03 µM",98.7%
same,"viability, T/C","second compound 3.16 µM, first compound 0.0949 µM",65.9%
same,"viability, T/C","second compound 3.16 µM, first compound 0.3 µM",15.6%
same,"viability, T/C","second compound 3.16 µM, first compound 0.949 µM",4.84%
same,"viability, T/C","second compound 3.16 µM, first compound 3 µM",3.28%
same,"viability, T/C","second compound 10 µM, first compound 0.00949 µM",96.5%
same,"viability, T/C","second compound 10 µM, first compound 0.03 µM",89%
same,"viability, T/C","second compound 10 µM, first compound 0.0949 µM",73.1%
same,"viability, T/C","second compound 10 µM, first compound 0.3 µM",39.8%
same,"viability, T/C","second compound 10 µM, first compound 0.949 µM",4.17%
same,"viability, T/C","second compound 10 µM, first compound 3 µM",2.94%
same,"viability, T/C","second compound 31.6 µM, first compound 0.00949 µM",107%
same,"viability, T/C","second compound 31.6 µM, first compound 0.03 µM",104%
same,"viability, T/C","second compound 31.6 µM, first compound 0.0949 µM",31.9%
same,"viability, T/C","second compound 31.6 µM, first compound 0.3 µM",14.3%
same,"viability, T/C","second compound 31.6 µM, first compound 0.949 µM",3.77%
same,"viability, T/C","second compound 31.6 µM, first compound 3 µM",2.95%
same,"viability, T/C","second compound 100 µM, first compound 0.00949 µM",88%
same,"viability, T/C","second compound 100 µM, first compound 0.03 µM",65%
same,"viability, T/C","second compound 100 µM, first compound 0.0949 µM",37%
same,"viability, T/C","second compound 100 µM, first compound 0.3 µM",6.38%
same,"viability, T/C","second compound 100 µM, first compound 0.949 µM",3.72%
same,"viability, T/C","second compound 100 µM, first compound 3 µM",3%
